Measured values reported in patent publication US20100206809A1, “METHOD AND APPARATUS FOR TREATING ORGANIC MATTER-CONTAINING WATER” (KURITA WATER INDUSTRIES LTD., priority 2007, published 2010).

Legend:
viable cells [1] = assay: Viable cell counts at measuring points, nonionic surfactant-containing wastewater treatment (FIG. 2 embodiment)
Procedure: […] Next, an EDTA-based scale inhibitor (Welclean A801, manufactured by Kurita Water Industries Ltd.) was added in an amount of 10 mg/L (five times the weight of the concentration of calcium ions in softening column-treated water). NaOH was added to adjust the pH to 10.5. Then the water was passed through an RO membrane separator (with an aromatic-polyamide ultra-low-pressure RO membrane “ES-20”, manufactured by Nitto Denko Corporation) at a permeate flow of 60 L/hr and a recovery rate of 80% to perform RO membrane separation treatment.
In Example 10 and Comparative Example 2, viable cell counts were measured at several points.
In Examples 11 to 14, viable cell counts in the activated carbon-treated water and the softened water were measured.
In Examples 15 to 18, viable cell counts in the activated carbon-treated water and the softening column-treated water were measured.

[2] = Daily change in flux through the RO membrane separator
Procedure: The water that had been subjected to the coagulation-filtration treatment was passed through a fixed-bed activated carbon column at an SV of 20 hr^−1 and then a softening column at an SV of 15 hr^−1. Next, an EDTA-based scale inhibitor (Welclean A801, manufactured by Kurita Water Industries Ltd.) was added in an amount of 10 mg/L (five times the weight of the concentration of calcium ions in softening column-treated water). […] Then the water was passed through an RO membrane separator (with an aromatic-polyamide ultra-low-pressure RO membrane “ES-20”, manufactured by Nitto Denko Corporation) at a permeate flow of 60 L/hr and a recovery rate of 80% to perform RO membrane separation treatment.
Treatment was performed under the same conditions as those in Example 10, except that the pH of the softening column-treated water was adjusted in such a manner that the pH of the RO feed water was 6 (Reference Example 1) or 8.5 (Reference Example 2).
In Example 10, Comparative Example 2, and Reference Examples 1 and 2, daily changes in flux through the RO membrane separator were measured.

viable cells [3] = assay: Viable cell counts at measuring points, industrial water treatment (FIG. 1 embodiment)
Procedure: The water that had been subjected to the coagulation-filtration treatment was passed through an activated carbon column at an SV of 20 hr^−1. Then the water was passed through an RO membrane separator (with an aromatic-polyamide ultra-low-pressure RO membrane “ES-20”, manufactured by Nitto Denko Corporation) at a permeate flow of 60 L/hr and a recovery rate of 80%.
In Example 1 and Comparative Example 1, viable cell counts were measured at several points.
In Examples 2 to 5, concentrations of combined chlorine in activated carbon feed water (water fed into the activated carbon column) and activated carbon-treated water (water from the activated carbon column) were measured, and viable cell counts in the activated carbon-treated water were measured.
In Examples 6 to 9, concentrations of combined chlorine and viable cell counts in the activated carbon-treated water were measured.

[4] = Example 11, chloramine T added 0.5 mg-Cl2/L (combined chlorine), SV 20 hr^-1, wastewater
[5] = Example 12, chloramine T added 0.8 mg-Cl2/L (combined chlorine), SV 20 hr^-1, wastewater
[6] = Example 15, SV through activated carbon column 10 hr^-1, combined chlorine 1 mg-Cl2/L, wastewater
[7] = Example 16, SV through activated carbon column 15 hr^-1, combined chlorine 1 mg-Cl2/L, wastewater
[8] = day 1, Example 10 (chloramine T 5 mg-Cl2/L) / Comparative Example 2 (NaClO 0.5 mg-Cl2/L), RO feed water pH 9.5
[9] = day 7, Example 10 (chloramine T 5 mg-Cl2/L) / Comparative Example 2 (NaClO 0.5 mg-Cl2/L), RO feed water pH 9.5
[10] = Example 10 (chloramine T, combined chlorine 5 mg-Cl2/L) / Comparative Example 2 (NaClO, free chlorine 0.5 mg-Cl2/L), wastewater TOC 20 mg/L, SV 20 hr^-1
[11] = Example 1 (chloramine T, combined chlorine 5 mg-Cl2/L) / Comparative Example 1 (NaClO, free chlorine 0.5 mg-Cl2/L), SV 20 hr^-1

SMILES: Cc1ccc(S(=O)(=O)[N-]Cl)cc1.[Na+] [Chloramine T, sodium N-chloro-p-toluenesulfonamide trihydrate]
- Viable cells at all measuring points (viable cells [1]; Example 10, combined chlorine 5 mg-Cl2/L, wastewater, SV 20 hr^-1): no viable cells were detected
- Viable cell count, activated carbon-treated water (viable cells [1]; [4]): 3 × 10^4 cells/ml
- Viable cell count, softened water (viable cells [1]; [4]): 4 × 10^5 cells/ml
- Viable cell count, activated carbon-treated water (viable cells [1]; [5]): 6 × 10^3 cells/ml
- Viable cell count, softened water (viable cells [1]; [5]): 8 × 10^4 cells/ml
- Viable cell count, activated carbon-treated water (viable cells [1]; [6]): 9 × 10^4 cells/ml
- Viable cell count, softened water (viable cells [1]; [6]): 2 × 10^6 cells/ml
- Viable cell count, activated carbon-treated water (viable cells [1]; [7]): 2 × 10^5 cells/ml
- Viable cell count, softened water (viable cells [1]; [7]): 7 × 10^6 cells/ml
- Reduction in flux through the RO membrane separator ([2]; Example 10, chloramine T 5 mg-Cl2/L, RO feed water pH 9.5): no reduction in flux
- Flux [2, 8]: 1.0 m^3/m^2 · day
- Flux ([2]; day 1, Reference Example 1, chloramine T 5 mg-Cl2/L, RO feed water pH 6): 0.98 m^3/m^2 · day
- Flux ([2]; day 1, Reference Example 2, chloramine T 5 mg-Cl2/L, RO feed water pH 8.5): 0.99 m^3/m^2 · day
- Flux [2, 9]: 0.95 m^3/m^2 · day
- Flux ([2]; day 7, Reference Example 1, chloramine T 5 mg-Cl2/L, RO feed water pH 6): 0.98 m^3/m^2 · day
- Flux ([2]; day 7, Reference Example 2, chloramine T 5 mg-Cl2/L, RO feed water pH 8.5): 0.97 m^3/m^2 · day
- Flux ([2]; day 30, Example 10 (chloramine T 5 mg-Cl2/L) / Comparative Example 2 (NaClO 0.5 mg-Cl2/L), RO feed water pH 9.5): 0.95 m^3/m^2 · day
- Flux ([2]; day 30, Reference Example 1, chloramine T 5 mg-Cl2/L, RO feed water pH 6): 0.97 m^3/m^2 · day
- Flux ([2]; day 30, Reference Example 2, chloramine T 5 mg-Cl2/L, RO feed water pH 8.5): 0.97 m^3/m^2 · day
- Flux ([2]; day 60, Example 10 (chloramine T 5 mg-Cl2/L), RO feed water pH 9.5): 0.93 m^3/m^2 · day
- Flux ([2]; day 90, Example 10 (chloramine T 5 mg-Cl2/L), RO feed water pH 9.5): 0.93 m^3/m^2 · day
- Viable cells at all measuring points (viable cells [3]; Example 1, combined chlorine 5 mg-Cl2/L, SV 20 hr^-1): no viable cells were detected
- Viable cell count in activated carbon-treated water (viable cells [3]; Example 2, combined chlorine in activated carbon feed water 0.5 mg/L, SV 20 hr^-1): 4 × 10^3 cells/ml
- Viable cell count in activated carbon-treated water (viable cells [3]; Example 3, combined chlorine in activated carbon feed water 0.8 mg/L, SV 20 hr^-1): 5 × 10^3 cells/ml
- Viable cell count in activated carbon-treated water (viable cells [3]; Example 6, SV through activated carbon column 10 hr^-1, combined chlorine 1 mg-Cl2/L): 9 × 10^3 cells/mil
- Viable cell count in activated carbon-treated water (viable cells [3]; Example 7, SV through activated carbon column 15 hr^-1, combined chlorine 1 mg-Cl2/L): 2 × 10^3 cells/mil

SMILES: OCl [NaClO, sodium hypochlorite, reference compound]
- Viable cells detected in the activated carbon-treated water (viable cells [1]; Comparative Example 2, free chlorine 0.5 mg-Cl2/L, wastewater): 10^5 viable cells per milliliter
- Viable cells detected in the softening column-treated water (viable cells [1]; Comparative Example 2, free chlorine 0.5 mg-Cl2/L, wastewater, sampled before the addition of the alkali): 10^6 viable cells per milliliter
- Viable cell count, activated carbon-treated water (viable cells [1]; [10]): 10^5 cells/ml
- Viable cell count, softened water (viable cells [1]; [10]): 10^6 cells/ml
- Flux [2, 8]: 0.98 m^3/m^2 · day
- Flux [2, 9]: 0.96 m^3/m^2 · day
- Viable cells detected in the activated carbon-treated water (viable cells [3]; Comparative Example 1, free chlorine 0.5 mg-Cl2/L, SV 20 hr^-1): 10^3 viable cells per milliliter
- Viable cell count, RO feed water (viable cells [3]; [11]): 4 × 10^3 cells/ml
- Viable cell count, RO-concentrated water (viable cells [3]; [11]): 2 × 10^5 cells/ml
- Viable cell count, activated carbon-treated water (viable cells [3]; [11]): 5 × 10^3 cells/ml
